# Test results as given in patent US6469049B1, “Method of treating, preventing or inhibiting central nervous system injuries and diseases” (The United States of America as represented by the …, priority 2000, dated 2002).
# “Also recorded” adds a separate entry of the source.
# Experiments:
# rats = test: Experimental spinal cord injury (dynorphin A injection) in rats, motor scores; assay type: in vivo; settings: rat, about 5 micromoles DHLA intrathecally, 2 hour pretreatment and treatment after injury
# Procedure: Here, about 5 micromoles of DHLA was administered intrathecally as a 2 hour pretreatment. Flaccid paralysis was acutely evident about 10 minutes after injection with dynorphin A and where there was no pretreatment with DHLA or co-treatment with DHLA. […] See Long et al., (1999) Neurosci. Abs. 25, which is herein incorporated reference.
# [1] = tested on: primary cultures of neurons derived from the forebrains of E-15 rat fetuses; test: Hemoglobin-induced toxicity in cultured neurons, MTT viability assay; assay type: cell-based
# Procedure: See Koenig et al., (1999) Neurosci. Abs., 25, which is herein incorporated by reference. […] […] Neuronal viability was assessed by using the calorimetric MT assay of succinate dehydrogenase activity. MTT is a calorimetric dye, 3-(4,5-dimethylthiazol-2-yl)-2,5-diphenyltetrazolium bromide, and is available from Sigma. Neuroprotection increased with increasing concentrations of DHLA.
# Primary cultures may be established following the procedures outlined by Koenig, M. L., et al., (1996) Brain Res. 730:143-149, which is herein incorporated by reference. The forebrains of fetal rat pups (embryonic day 15) are isolated and the cells are dispersed by repeated trituration in neuronal culture medium (NCM). NCM comprises a 1:1 ratio of Ham's F-12 (Biofluids, Rockville, Md.) to Basal Medium Eagle (Sigma, St. Louis, Mo.), supplemented with 0.6 g/L of dextrose, 0.35% glutamine and 1% Pen-Strep (Biofluids. Rockville, Md.). Following centrifugation at 900×g for 5 minutes, the cells are plated onto poly-L-lysine-coated 48 well plates at a density of 10^6 cells/ml. […]
# Oxidative injury is assessed by using an MTT assay (Sigma, St. Louis, Mo.). […] About 200 μl aliquots are collected and the absorbance of these aliquots are measured on an ELISA plate reader at about 540 nm. Control (untreated) wells are included in each experiment, and viability is calculated as the percentage of mean control values for each plate.
# cultured neurons = test: H2O2-induced oxidative insult in cultured neurons, MTT assay of neuroprotection; assay type: cell-based, rat; settings: for % Neuroprotection: 4 h incubation, then 50 μM H2O2 30 min, MTT after 24 h, mean ± SEM; for effect on the neuroprotective efficacy of DHL: H2O2 insult
# Description: Primary cultures may be established following the procedures outlined by Koenig, M. L., et al., (1996) Brain Res. 730:143-149, which is herein incorporated by reference. The forebrains of fetal rat pups (embryonic day 15) are isolated and the cells are dispersed by repeated trituration in neuronal culture medium (NCM). NCM comprises a 1:1 ratio of Ham's F-12 (Biofluids, Rockville, Md.) to Basal Medium Eagle (Sigma, St. Louis, Mo.), supplemented with 0.6 g/L of dextrose, 0.35% glutamine and 1% Pen-Strep (Biofluids. Rockville, Md.). Following centrifugation at 900×g for 5 minutes, the cells are plated onto poly-L-lysine-coated 48 well plates at a density of 10^6 cells/ml. To suppress glial growth. the cultures are treated with cytosine arabinoside (10^−5 M) for 4 days. All cultures are maintained in an incubator comprising 5% CO2 at 37° C. for about 6 days to about 15 days prior to use.
# Oxidative injury is assessed by using an MTT assay (Sigma, St. Louis, Mo.). About 24 h after exposure to either hemoglobin or an oxidative insult, MTT is added to each test well such that the final concentration of the dye is about 0.15 mg/ml. Plates are returned to the incubator for about 1 hr at which time unincorporated MTU is removed and the plates are allowed to air dry. The purple formazan product indicative of viable cells is then dissolved by adding about 250 μl of acidified isopropanol comprising about 95% isopropanol and about 5% 2N HCl. About 200 μl aliquots are collected and the absorbance of these aliquots are measured on an ELISA plate reader at about 540 nm. Control (untreated) wells are included in each experiment, and viability is calculated as the percentage of mean control values for each plate.
# (§1) Cultured neurons were incubated with four DHL concentrations, 3.0, 10.0, 30.0, and 100.0 micromolar of DHL, with or without 10 mM SPBN for four hours. After incubation. an oxidative insult was applied by adding 50 micromolar of H2O2 for 30 minutes after which the medium was removed and replaced with Minimum Essential Medium (MEM) (Sigma. St. Louis, Mo.). After 24 hours, the colormetric MTT assay as described above was conduced to determine amount of neuroprotection.
# as §1, with “30.0.” for “30.0,”, “PBN” for “SPBN”, “incubation,” for “incubation.”, “[…]” for “removed and replaced”, “(Sigma,” for “(Sigma.”
# [2] = tested on: cultured mouse hippocampal HT4 cells; settings: cited from earlier work
compound,measurement,setting,value
"O=C(O)CCCC[C@@H](S)CCS (racemic) [DHL, dihydrolipoic acid]",protection against experimental spinal cord injury (motor scores),rats,protective; also recorded: improve motor scores
same,"neuroprotection against hemoglobin-induced toxicity (neuronal viability, MTT)",[1]; DHLA co-applied with hemoglobin (no pre-incubation),no evidence of neuroprotection
same,"neuroprotection against hemoglobin-induced toxicity (neuronal viability, MTT)","[1]; pre-incubation about 4 hours, about 0.3 to about 10 micromolar DHLA, then about 10 micromoles hemoglobin for about 24 hours",protective in a concentration-related manner
same,% Neuroprotection,"cultured neurons; DHL 3 μM, SPBN 0 mM",1.31 ± 5.23%
same,% Neuroprotection,"cultured neurons; DHL 10 μM, SPBN 0 mM",−3.68 ± 5.14%
same,% Neuroprotection,"cultured neurons; DHL 30 μM, SPBN 0 mM",7.04 ± 7.38%
same,% Neuroprotection,"cultured neurons; DHL 100 μM, SPBN 0 mM",28.48 ± 5.83%
same,% Neuroprotection,"cultured neurons; Table 2 experiment: DHL 3 μM, PBN 0 mM",−1.3 ± 7.2%
same,% Neuroprotection,"cultured neurons; Table 2 experiment: DHL 10 μM, PBN 0 mM",22.2 ± 13.6%
same,% Neuroprotection,"cultured neurons; Table 2 experiment: DHL 30 μM, PBN 0 mM",22.1 ± 9.7%
same,% Neuroprotection,"cultured neurons; Table 2 experiment: DHL 100 μM, PBN 0 mM",36.9 ± 9.6%
"CC(C)(C)[N+]([O-])=Cc1ccccc1S(=O)(=O)O [SPBN, N-tert-Butyl-α-(2-sulfophenyl)nitrone, reference compound]",effect on the neuroprotective efficacy of DHL,cultured neurons; 10 mM SPBN co-incubated with 3-100 μM DHL,significantly increased
"CN(C)CCNC(=O)CCCCC1CCSS1.Cl (centres unmarked) [LA-plus, 2-(N,N-dimethylamine) ethylamido lipoate-HCL]","in vitro protection against glutamate-induced loss of GSH, formation of peroxide and neurotoxicity, compared with ALA",[2],better
"CC(C)(C)[N+]([O-])=Cc1ccccc1 [PBN, alpha-Phenyl-N-tert-butylnitrone, reference compound]",effect on the neuroprotective efficacy of DHL,cultured neurons; 10 mM PBN co-incubated with 3-100 μM DHL,significantly increased
